# Earlier results as cited in article PMC3356383, “Efficacious Intermittent Dosing of a Novel JAK2 Inhibitor in Mouse Models of Polycythemia Vera” (PLoS ONE, 2012).
# Tested on: murine model of PV
# Parameters: method as in PMID 18394554
# Conditions: 42 days of continuous treatment; cited from earlier work
compound,measurement,value
Cc1cnc(Nc2ccc(OCCN3CCCC3)cc2)nc1Nc1cccc(S(=O)(=O)NC(C)(C)C)c1 [TG101348],Hematocrit reduction,18%
